Laboratory results as given in patent US10913733B2, “Substituted piperidines thiazolyl acetamides as glycosidase inhibitors and uses thereof” (priority 2015, dated 2021).

What follows are compounds tested against human O-GlcNAcase (Homo sapiens (Human), UniProt O60502) (assay: Assay for determination of KI values for inhibition of O-GlcNAcase activity). Conditions: purified human O-GlcNAcase 0.7 nM; substrate 2 mM 4-Methylumbelliferyl N-acetyl-β-D-glucosaminide; pH 7.0; room temperature; Cheng-Prusoff; read-out: hOGA Ki.
Sequence of human O-GlcNAcase (O60502 whole entry): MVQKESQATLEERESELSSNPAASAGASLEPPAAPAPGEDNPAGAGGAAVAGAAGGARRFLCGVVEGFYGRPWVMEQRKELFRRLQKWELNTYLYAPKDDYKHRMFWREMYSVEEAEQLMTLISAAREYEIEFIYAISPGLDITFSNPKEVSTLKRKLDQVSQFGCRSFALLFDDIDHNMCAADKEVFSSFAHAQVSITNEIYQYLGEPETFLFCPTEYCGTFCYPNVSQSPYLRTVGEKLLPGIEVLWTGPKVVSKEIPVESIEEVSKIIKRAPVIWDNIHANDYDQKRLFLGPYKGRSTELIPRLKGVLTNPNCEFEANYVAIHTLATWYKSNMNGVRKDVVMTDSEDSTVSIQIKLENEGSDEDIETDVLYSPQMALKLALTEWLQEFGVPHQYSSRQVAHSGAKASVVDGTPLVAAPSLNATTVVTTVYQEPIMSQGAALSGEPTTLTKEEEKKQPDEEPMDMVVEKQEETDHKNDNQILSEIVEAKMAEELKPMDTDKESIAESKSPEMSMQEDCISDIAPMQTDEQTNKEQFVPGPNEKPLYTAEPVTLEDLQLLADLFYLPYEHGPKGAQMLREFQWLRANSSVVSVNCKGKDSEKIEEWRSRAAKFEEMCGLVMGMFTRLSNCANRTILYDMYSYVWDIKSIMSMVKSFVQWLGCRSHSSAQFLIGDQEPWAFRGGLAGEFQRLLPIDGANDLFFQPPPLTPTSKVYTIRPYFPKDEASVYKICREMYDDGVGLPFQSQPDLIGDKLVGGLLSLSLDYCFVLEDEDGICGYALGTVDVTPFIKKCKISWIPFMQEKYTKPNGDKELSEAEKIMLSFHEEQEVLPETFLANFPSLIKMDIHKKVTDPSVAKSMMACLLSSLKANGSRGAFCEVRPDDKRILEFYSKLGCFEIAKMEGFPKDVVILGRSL
Type: biochemical
Protocol: Assay for Determination of KI Values for Inhibition of O-GlcNAcase Activity
Experimental procedure for kinetic analyses: Enzymatic reactions were carried out in a reaction containing 50 mM NaH2PO4, 100 mM NaCl and 0.1% BSA (pH 7.0) using 2 mM 4-Methylumbelliferyl N-acetyl-β-D-glucosaminide dihydrate (Sigma M2133) dissolved in ddH2O, as a substrate. The amount of purified human O-GlcNAcase enzyme used in the reaction was 0.7 nM. Test compound of varying concentrations was added to the enzyme prior to initiation of the reaction. The reaction was performed at room temperature in a 96-well plate and was initiated with the addition of substrate. The production of fluorescent product was measured every 60 sec for 45 min with a Tecan Infinite M200 plate-reader with excitation at 355 nm and emission detected at […], with 4-Methylumbelliferone (Sigma M1381) used to produce a standard curve. The slope of product production was determined for each concentration of compound tested and plotted, using standard curve fitting algorithms for sigmoidal dose response curves. The values for a four parameter logistic curve fit of the data were determined. KI values were determined using the Cheng-Prusoff equation; the Km of O-GlcNAcase for substrate was 0.2 mM.

Row | SMILES | Ki [nM]
1 | COc1ccc(/C=C2\CCN(Cc3cnc(NC(C)=O)s3)[C@@H](C)C2)cc1 [Example 41, (S,E)-N-(5-((4-(4-methoxybenzylidene)-2-methylpiperidin-1-yl)methyl)thiazol-2-yl)acetamide] | 9.61
2 | CC(=O)Nc1ncc(CN2CCC(=Cc3ccc(OCCF)cc3)CC2)s1 [Example 42, N-{5-[(4-{[4-(2-fluoroethoxy)phenyl]methylidene}piperidin-1-yl)methyl]-1,3-thiazol-2-yl}acetamide] | 0.625
3 | COc1cccc(C=C2CCN(Cc3cnc(NC(C)=O)s3)CC2)c1 [Example 43, N-(5-((4-(3-methoxybenzylidene)piperidin-1-yl)methyl)thiazol-2-yl)acetamide] | 2.93
4 | CC(=O)Nc1ncc(CN2CCC(=Cc3cccc(O)c3)CC2)s1 [Example 44, N-(5-((4-(3-hydroxybenzylidene)piperidin-1-yl)methyl)thiazol-2-yl)acetamide] | 1.13
5 | C=CCOc1ccc(C=C2CCN(Cc3cnc(NC(C)=O)s3)CC2)cc1 [Example 45, N-{5-[(4-{[4-(prop-2-en-1-yloxy)phenyl]methylidene}piperidin-1-yl)methyl]-1,3-thiazol-2-yl}acetamide] | 6.11
6 | COc1ccc(C=C2CCN(Cc3cnc(NC(C)=O)s3)CC2)cc1 [Example 46, N-[5-({4-[(4-methoxyphenyl)methylidene]piperidin-1-yl}methyl)-1,3-thiazol-2-yl]acetamide] | 2
7 | COc1ccccc1C=C1CCN(Cc2cnc(NC(C)=O)s2)CC1 [Example 47, N-(5-((4-(2-methoxybenzylidene)piperidin-1-yl)methyl)thiazol-2-yl)acetamide] | 2.45
8 | CC(=O)Nc1ncc(CN2CCC(=Cc3ccc(-c4ccccc4)cc3)CC2)s1 [Example 48, N-(5-((4-([1,1′-biphenyl]-4-ylmethylene)piperidin-1-yl)methyl)thiazol-2-yl)acetamide] | 53.8
9 | CC(=O)Nc1ncc(CN2CCC(=Cc3ccc([N+](=O)[O-])nc3)CC2)s1 [Example 49] | 1.6
10 | CC(=O)Nc1ncc(CN2CCC(=Cc3ccc(CCO)cc3)CC2)s1 [Example 50, N-(5-((4-(4-(2-hydroxyethyl)benzylidene)piperidin-1-yl)methyl)thiazol-2-yl)acetamide] | 0.241
11 | CC(=O)Nc1ncc(CN2CC/C(=C/c3ccc(F)nc3)C[C@H]2C)s1 [Example 51, (R,Z)—N-(5-((4-((6-fluoropyridin-3-yl)methylene)-2-methylpiperidin-1-yl)methyl)thiazol-2-yl)acetamide] | 218
12 | CC(=O)Nc1ncc(CN2CC/C(=C/c3ccc(F)nc3)C[C@@H]2C)s1 [Example 52, (S,Z)—N-(5-((4-((6-fluoropyridin-3-yl)methylene)-2-methylpiperidin-1-yl)methyl)thiazol-2-yl)acetamide] | 0.389
13 | CC(=O)Nc1ncc(CN2CC/C(=C\c3ccc(F)nc3)C[C@H]2C)s1 [Example 53, (R,E)-N-(5-((4-((6-fluoropyridin-3-yl)methylene)-2-methylpiperidin-1-yl)methyl)thiazol-2-yl)acetamide] | 123
14 | CC(=O)Nc1ncc(CN2CC/C(=C\c3ccc(F)nc3)C[C@@H]2C)s1 [Example 54, (S,E)-N-(5-((4-((6-fluoropyridin-3-yl)methylene)-2-methylpiperidin-1-yl)methyl)thiazol-2-yl)acetamide] | 11.8
